Legend:
Experiment in all cases: BIO3-BIO1 mutant enzyme activity in the presence of herbicide, percentage inhibition (fluorometric DAPA assay)
Assay type in all cases: biochemical
Conditions in all cases: read-out: percentage inhibition
[1] = biological target: T1, Arabidopsis thaliana BIO3-BIO1 (BioDA) mutants (Arabidopsis thaliana, UniProt B0F481, Q517D)
T1 construct: with the predicted N-terminal mitochondrial transit peptide removed; 6xHis-tag (N); thrombin cleavage site (N); made in house; host or cells: E. coli BL21 (DE3) bioA
T1 sequence (B0F481 23-833 Q517D): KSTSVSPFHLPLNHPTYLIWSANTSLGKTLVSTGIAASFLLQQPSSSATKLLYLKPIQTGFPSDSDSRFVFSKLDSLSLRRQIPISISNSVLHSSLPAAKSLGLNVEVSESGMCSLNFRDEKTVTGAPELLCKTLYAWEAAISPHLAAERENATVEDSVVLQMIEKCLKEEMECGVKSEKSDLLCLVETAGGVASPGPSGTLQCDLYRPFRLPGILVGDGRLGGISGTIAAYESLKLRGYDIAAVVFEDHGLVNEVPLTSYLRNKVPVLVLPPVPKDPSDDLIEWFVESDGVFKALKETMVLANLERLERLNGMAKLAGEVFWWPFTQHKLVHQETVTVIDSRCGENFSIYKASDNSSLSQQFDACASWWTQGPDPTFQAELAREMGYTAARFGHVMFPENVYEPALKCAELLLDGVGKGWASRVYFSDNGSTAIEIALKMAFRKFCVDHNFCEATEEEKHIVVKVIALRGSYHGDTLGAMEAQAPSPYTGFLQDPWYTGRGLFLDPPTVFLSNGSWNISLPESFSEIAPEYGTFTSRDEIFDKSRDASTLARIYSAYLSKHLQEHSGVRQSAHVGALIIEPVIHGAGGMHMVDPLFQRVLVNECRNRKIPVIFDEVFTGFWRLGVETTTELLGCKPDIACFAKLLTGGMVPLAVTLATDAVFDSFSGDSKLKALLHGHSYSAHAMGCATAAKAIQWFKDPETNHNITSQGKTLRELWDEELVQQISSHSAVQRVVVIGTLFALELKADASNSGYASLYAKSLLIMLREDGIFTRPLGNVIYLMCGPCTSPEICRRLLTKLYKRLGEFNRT
In short: (§1)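 His-tagged Arabidopsis BIO3-BIO1 mutants, expressed in E. coli and purified by IMAC and SEC, were preincubated at 50 nM with herbicide for 10 min at 20 °C in EPPS pH 8.6 with pyridoxal phosphate. Reaction with 100 μM spermidine and 20 μM KAPA ran 75 min at 20 °C; DAPA was derivatised with o-phthalaldehyde and read at ex 410/em 470 nm. […].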

[2] = biological target: T2, Arabidopsis thaliana BIO3-BIO1 (BioDA) mutants (Arabidopsis thaliana, UniProt B0F481, S509R)
T2 construct: with the predicted N-terminal mitochondrial transit peptide removed; 6xHis-tag (N); thrombin cleavage site (N); made in house; host or cells: E. coli BL21 (DE3) bioA
T2 sequence (B0F481 23-833 S509R): as the sequence (B0F481 23-833 Q517D) above, with S487R, D495Q counted along it
In short: as §1

[3] = biological target: T3, Arabidopsis thaliana BIO3-BIO1 (BioDA) mutants (Arabidopsis thaliana, UniProt B0F481, C388D)
T3 construct: with the predicted N-terminal mitochondrial transit peptide removed; 6xHis-tag (N); thrombin cleavage site (N); made in house; host or cells: E. coli BL21 (DE3) bioA
T3 sequence (B0F481 23-833 C388D): as the sequence (B0F481 23-833 Q517D) above, with C366D, D495Q counted along it
In short: as §1

[4] = biological target: T4, Arabidopsis thaliana BIO3-BIO1 (BioDA) mutants (Arabidopsis thaliana, UniProt B0F481, Y511W)
T4 construct: with the predicted N-terminal mitochondrial transit peptide removed; 6xHis-tag (N); thrombin cleavage site (N); made in house; host or cells: E. coli BL21 (DE3) bioA
T4 sequence (B0F481 23-833 Y511W): as the sequence (B0F481 23-833 Q517D) above, with Y489W, D495Q counted along it
In short: as §1

[5] = biological target: T5, Arabidopsis thaliana BIO3-BIO1 (BioDA) mutants (Arabidopsis thaliana, UniProt B0F481, W392M)
T5 construct: with the predicted N-terminal mitochondrial transit peptide removed; 6xHis-tag (N); thrombin cleavage site (N); made in house; host or cells: E. coli BL21 (DE3) bioA
T5 sequence (B0F481 23-833 W392M): as the sequence (B0F481 23-833 Q517D) above, with W370M, D495Q counted along it
In short: as §1

[6] = biological target: T6, Arabidopsis thaliana BIO3-BIO1 (BioDA) mutants (Arabidopsis thaliana, UniProt B0F481, Y511P)
T6 construct: with the predicted N-terminal mitochondrial transit peptide removed; 6xHis-tag (N); thrombin cleavage site (N); made in house; host or cells: E. coli BL21 (DE3) bioA
T6 sequence (B0F481 23-833 Y511P): as the sequence (B0F481 23-833 Q517D) above, with Y489P, D495Q counted along it
In short: as §1

[7] = biological target: T7, Arabidopsis thaliana BIO3-BIO1 (BioDA) mutants (Arabidopsis thaliana, UniProt B0F481, P510V)
T7 construct: with the predicted N-terminal mitochondrial transit peptide removed; 6xHis-tag (N); thrombin cleavage site (N); made in house; host or cells: E. coli BL21 (DE3) bioA
T7 sequence (B0F481 23-833 P510V): as the sequence (B0F481 23-833 Q517D) above, with P488V, D495Q counted along it
In short: as §1

[8] = biological target: T8, Arabidopsis thaliana BIO3-BIO1 (BioDA) mutants (Arabidopsis thaliana, UniProt B0F481, Y511R)
T8 construct: with the predicted N-terminal mitochondrial transit peptide removed; 6xHis-tag (N); thrombin cleavage site (N); made in house; host or cells: E. coli BL21 (DE3) bioA
T8 sequence (B0F481 23-833 Y511R): as the sequence (B0F481 23-833 Q517D) above, with Y489R, D495Q counted along it
In short: as §1

[9] = biological target: T9, Arabidopsis thaliana BIO3-BIO1 (BioDA) mutants (Arabidopsis thaliana, UniProt B0F481, F420I)
T9 construct: with the predicted N-terminal mitochondrial transit peptide removed; 6xHis-tag (N); thrombin cleavage site (N); made in house; host or cells: E. coli BL21 (DE3) bioA
T9 sequence (B0F481 23-833 F420I): as the sequence (B0F481 23-833 Q517D) above, with F398I, D495Q counted along it
In short: as §1

[10] = biological target: T10, Arabidopsis thaliana BIO3-BIO1 (BioDA) mutants (Arabidopsis thaliana, UniProt B0F481, Q517Y)
T10 construct: with the predicted N-terminal mitochondrial transit peptide removed; 6xHis-tag (N); thrombin cleavage site (N); made in house; host or cells: E. coli BL21 (DE3) bioA
T10 sequence (B0F481 23-833 Q517Y): as the sequence (B0F481 23-833 Q517D) above, with D495Y counted along it
In short: as §1

[11] = biological target: T11, Arabidopsis thaliana BIO3-BIO1 (BioDA) mutants (Arabidopsis thaliana, UniProt B0F481, A609M)
T11 construct: with the predicted N-terminal mitochondrial transit peptide removed; 6xHis-tag (N); thrombin cleavage site (N); made in house; host or cells: E. coli BL21 (DE3) bioA
T11 sequence (B0F481 23-833 A609M): as the sequence (B0F481 23-833 Q517D) above, with D495Q, A587M counted along it
In short: as §1

[12] = biological target: T12, Arabidopsis thaliana BIO3-BIO1 (BioDA) mutants (Arabidopsis thaliana, UniProt B0F481, S509N)
T12 construct: with the predicted N-terminal mitochondrial transit peptide removed; 6xHis-tag (N); thrombin cleavage site (N); made in house; host or cells: E. coli BL21 (DE3) bioA
T12 sequence (B0F481 23-833 S509N): as the sequence (B0F481 23-833 Q517D) above, with S487N, D495Q counted along it
In short: as §1

| SMILES | inhibition at 0.2 µM [1] | inhibition at 1 µM [1] | inhibition at 5 µM [1] | inhibition at 0.2 µM [2] | inhibition at 1 µM [2] | inhibition at 5 µM [2] | inhibition at 0.2 µM [3] | inhibition at 1 µM [3] | inhibition at 5 µM [3] | inhibition at 0.2 µM [4] | inhibition at 1 µM [4] | inhibition at 5 µM [4] | inhibition at 1 µM [5] | inhibition at 1 µM [6] | inhibition at 1 µM [7] | inhibition at 1 µM [8] | inhibition at 1 µM [9] | inhibition at 1 µM [10] | inhibition at 1 µM [11] | inhibition at 1 µM [12] | also measured |
| --- | --- | --- | --- | --- | --- | --- | --- | --- | --- | --- | --- | --- | --- | --- | --- | --- | --- | --- | --- | --- | --- |
| CCn1c(-c2ccc(Cl)c(Cl)c2)c(C(=O)O)c(=O)c2cc(F)ccc21 [Compound M, 2-(3,4-dichlorophenyl)-1-ethyl-6-fluoro-4-oxo-quinoline-3-carboxylic acid] | 6% | 2% | 0% | 48% | 82% | 96% | 0% | 0% | 0% | 25% | 67% | 90% | 0% | 89% | 0% | 96% | 45% | 71% | 0% | 39% | inhibition at 0.2 µM [5]: 0%; inhibition at 5 µM [5]: 22%; inhibition at 0.2 µM [6]: 48%; inhibition at 5 µM [6]: 98%; inhibition at 0.2 µM [7]: 0%; inhibition at 5 µM [7]: 62%; inhibition at 0.2 µM [8]: 74%; inhibition at 5 µM [8]: 99%; inhibition at 0.2 µM [9]: 0%; inhibition at 5 µM [9]: 84%; inhibition at 0.2 µM [10]: 36%; inhibition at 5 µM [10]: 90%; inhibition at 0.2 µM [11]: 5%; inhibition at 5 µM [11]: 11%; inhibition at 0.2 µM [12]: 6%; inhibition at 5 µM [12]: 78% |
| CCn1c(C)c(-c2ccc(F)cc2F)c(=O)c(C(=O)O)c1-c1ccc(Cl)c(Cl)c1 [Compound C, 2-(3,4-dichlorophenyl)-5-(2,4-difluorophenyl)-1-ethyl-6-methyl-4-oxo-pyridine-3-carboxylic acid] | 0% | 0% | 0% | 42% | 87% | 98% | 5% | 0% | 9% | 41% | 85% | 97% | 30% | 95% | 21% | 99% | 55% | 86% | 5% | 50% | inhibition at 0.2 µM [5]: 10%; inhibition at 5 µM [5]: 56%; inhibition at 0.2 µM [6]: 53%; inhibition at 5 µM [6]: 99%; inhibition at 0.2 µM [7]: 0%; inhibition at 5 µM [7]: 79%; inhibition at 0.2 µM [8]: 80%; inhibition at 5 µM [8]: 99%; inhibition at 0.2 µM [9]: 0%; inhibition at 5 µM [9]: 88%; inhibition at 0.2 µM [10]: 49%; inhibition at 5 µM [10]: 97%; inhibition at 0.2 µM [11]: 9%; inhibition at 5 µM [11]: 13%; inhibition at 0.2 µM [12]: 16%; inhibition at 5 µM [12]: 86% |
| CCOC(=O)c1nn(-c2ccc3c(c2)OC(F)(F)C(F)(F)O3)c2cccc(C(C)=O)c2c1=O [Compound A, ethyl 5-acetyl-4-oxo-1-(2,2,3,3-tetrafluoro-1,4-benzodioxin-6-yl)cinnoline-3-carboxylate] |  | 22% |  |  | 15% |  |  | 14% |  |  | 57% |  | 14% | 28% | 1% | 46% | 0% | 52% | 3% | 43% |  |
| CCn1c(Cn2ccc(C(F)(F)F)n2)cc(=O)c(C(=O)O)c1-c1ccc(Cl)c(Cl)c1 [Compound L, 2-(3,4-dichlorophenyl)-1-ethyl-4-oxo-6-[[3-(trifluoromethyl)pyrazol-1-yl]methyl]pyridine-3-carboxylic acid] |  |  |  |  |  |  |  |  |  |  |  |  |  |  |  |  |  |  |  |  | inhibition at 0.01 µM [1]: 0%; inhibition at 0.075 µM [1]: 0%; inhibition at 0.5 µM [1]: 0%; inhibition at 0.01 µM [3]: 0%; inhibition at 0.075 µM [3]: 0%; inhibition at 0.5 µM [3]: 6%; inhibition at 0.01 µM [7]: 0%; inhibition at 0.075 µM [7]: 0%; inhibition at 0.5 µM [7]: 52%; inhibition at 0.01 µM [9]: 0%; inhibition at 0.075 µM [9]: 1%; inhibition at 0.5 µM [9]: 62%; inhibition at 0.01 µM [11]: 3%; inhibition at 0.075 µM [11]: 17%; inhibition at 0.5 µM [11]: 19% |

Reference: patent US20260226493A1, “HERBICIDE RESISTANT PLANTS” (SYNGENTA CROP PROTECTION AG, priority 2023, published 2026)
